{"source": "patent US6361788B1", "about": "“Synergistic biocide composition” (Thor Chemie GmbH, priority 1997, dated 2002)", "type_in_all_cases": "cell-based", "key": {"Escherichia coli": {"system": "Escherichia coli", "assay": "MIC and synergy of MIT and BIT in Müller-Hinton broth, 72 h; as to growth of the microorganism: key: growth of the microorganism took place (symbol '+'); or not (symbol '−')", "settings": "for growth of the microorganism: MIT ppm = row head c0", "method": "For this purpose, aqueous mixtures were produced with various concentrations of 2-methylisothiazolin-3-one (MIT) and 1,2-benzisothiazolin-3-one (BIT) and the activity of these mixtures on Escherichia coli (International Mycological Institute, Strain No. IMI 362054) was tested.\nIn addition to the biocide component and water, the aqueous mixtures contained a nutrient medium, namely a Müller-Hinton broth (commercial product “Merck No. 10393”). The cell density of Escherichia coli was 10^6 cells/mL. The incubation time was 72 h at 25° C. Each sample was incubated on an incubation shaker at 120 rpm.\n(§1) The synergy index is calculated according to the method of F. C. Kull et al., Applied Microbiology, Vol. 9 (1961), p. 538. Here the synergy index is calculated using the following formula:\n(§2) Synergy index SI=Qa/QA+Qb/QB.\nWhen the synergy index has the value 1, this means that there is an addition of the activity of the two biocides. When the synergy index has a value of less than 1, this means that a synergy of the two biocides exists."}, "[1]": {"system": "standard bacterial inoculum", "assay": "Preservation of coating composition B, repeated bacterial inoculation, streak evaluation", "method": "(§3) The biocides shown in Table XI below were added respectively to 50 g of coating composition A. The stated amounts of biocide refer to the amount of coating composition A. In the MIT/BIT mixtures, the two biocides were present in a weight ratio of 1:1.\n(§4) Apart from a blank test without addition of biocide, 1 mL of a standard bacterial inoculum that contained the following bacterial strains was added to each sample of coating composition A:\n(§5) The cell density of the inoculum was 10^10 to 3·10^10 cells/mL, and the cell density of the samples was 2·10^8 to 6·10^8 cells/g. The samples were held at 30° C. for 7 days. Then a streak of each sample was produced on a nutrient agar plate, held at 30° C. for 48 h, and then evaluated for bacterial growth. The following evaluation scale was used:\n(§6) When the bacterial growth was evaluated as below 6, a second bacterial inoculum of the above-mentioned type was added to the corresponding original 50 g sample and it was again held at 30° C. for 7 days. Then a streak was again produced on a nutrient agar plate, which was again evaluated for its bacterial growth after a holding time of 48 h at 30° C.\n(§7) When the bacterial growth of the streak was evaluated as 6 for a sample, the testing of this sample was terminated. As long as a sample had not reached this number, a bacterial inoculum was again added in the above-mentioned manner and the sample was held and tested by means of a streak. This procedure was repeated as necessary, with a maximum of 4 bacterial inocula being added per sample.\nExample 9 was repeated, but using coating composition B instead of coating composition A.\nCoating composition B is a particularly low-emission plaster based on a polymer dispersion commercially available under the designation “Granol KR 3.0 LF” (company Steinwerke Kupferdreh GmbH)."}, "Klebsiella pneumoniae": {"system": "Klebsiella pneumoniae", "assay": "MIC and synergy of MIT and BIT in Müller-Hinton broth, 72 h", "settings": "for growth of the microorganism: MIT ppm = row head c0", "method": "as §1, §2\nThe synergy of the two active substances MIT and BIT against the microorganism Klebsiella pneumoniae is shown as in example 1.\nThe test batches again contained a Müller-Hinton broth as a nutrient medium. The cell density was 10^6 cells/mL. The incubation time was 72 h at 25° C. Each sample was incubated on an incubation shaker at 120 rpm."}, "[2]": {"system": "standard bacterial inoculum", "assay": "Preservation of coating composition A, repeated bacterial inoculation, streak evaluation", "excerpt": "Biocide compositions according to the invention were incorporated into a coating composition A that is used for coating building facades. This coating composition is a plaster based on an aqueous polymer dispersion commercially available under the designation “Granol KR 3.0” (company Steinwerke Kupferdreh GmbH). The addition of the biocide composition of the invention served to preserve the coating composition before its use, i.e., while it was stored in its packing drums.\nas §3, §4, §5, §6, §7"}, "Aspergillus niger": {"system": "Aspergillus niger", "assay": "MIC and synergy of MIT and BIT in Sabouraud maltose broth, 96 h", "settings": "for growth of the microorganism: MIT ppm = row head c0", "method": "as §1, §2\nThe synergy of the two active substances MIT and BIT against the microorganism Aspergillus niger is shown as in Example 1.\nThe test batches contained a Sabouraud maltose broth as a nutrient medium. The spore concentration was 10^6 per mL. The incubation time was 96 h at 25° C. Each sample was incubated on an incubation shaker at 120 rpm."}, "[3]": {"settings": "BIT share of the BIT/MIT mixture at MIC, 72 h"}}, "note": "“Also recorded” adds a separate entry of the source. For growth of the microorganism in this document: key: growth of the microorganism took place (symbol '+'); or not (symbol '−').", "data": [{"compound": "O=c1[nH]sc2ccccc12", "note": "[BIT, 1,2-benzisothiazolin-3-one]", "values": [{"measurement": "MIC at Total concentration BIT + MIT Qa + Qb", "setting": "Escherichia coli; 72 h", "value": 25, "unit": "ppm"}, {"measurement": "Qa/QA", "setting": "Escherichia coli; 72 h", "value": 1.00}, {"measurement": "Synergy index Qa/QA + Qb/QB", "setting": "Escherichia coli; 72 h, method of Kull", "value": 1.00}, {"measurement": "growth of the microorganism", "setting": "Escherichia coli; BIT 1 ppm, 72 h", "value": "+"}, {"measurement": "growth of the microorganism", "setting": "Escherichia coli; BIT 2.5 ppm, 72 h", "value": "+"}, {"measurement": "growth of the microorganism", "setting": "Escherichia coli; BIT 5 ppm, 72 h", "value": "+"}, {"measurement": "growth of the microorganism", "setting": "Escherichia coli; BIT 7.5 ppm, 72 h", "value": "+"}, {"measurement": "growth of the microorganism", "setting": "Escherichia coli; BIT 10 ppm, 72 h", "value": "+"}, {"measurement": "growth of the microorganism", "setting": "Escherichia coli; BIT 12.5 ppm, 72 h", "value": "+"}, {"measurement": "growth of the microorganism", "setting": "Escherichia coli; BIT 15 ppm, 72 h", "value": "+"}, {"measurement": "growth of the microorganism", "setting": "Escherichia coli; BIT 17.5 ppm, 72 h", "value": "+"}, {"measurement": "growth of the microorganism", "setting": "Escherichia coli; BIT 20 ppm, 72 h", "value": "+"}, {"measurement": "growth of the microorganism", "setting": "Escherichia coli; BIT 25 ppm, 72 h", "value": "−"}, {"measurement": "growth of the microorganism", "setting": "Escherichia coli; BIT 30 ppm, 72 h", "value": "−"}, {"measurement": "growth of the microorganism", "setting": "Escherichia coli; BIT 35 ppm, 72 h", "value": "−"}, {"measurement": "MIC at BIT concentration Qa", "setting": "Escherichia coli; [3]", "value": 25, "unit": "ppm"}, {"measurement": "MIC value", "setting": "Escherichia coli; used alone, 72 h at 25° C.", "value": 25, "unit": "ppm"}, {"measurement": "bacterial attack", "setting": "[1]; all tested concentrations 0.005-0.03% by wt", "value": "complete bacterial attack could be observed after the third inoculation at the latest"}, {"measurement": "Bacterial growth (7 days + 48 h after 4th inoculation)", "setting": "[1]; biocide 0.005% by wt", "value": "(Growth already after 1st inoculation)"}, {"measurement": "Bacterial growth (7 days + 48 h after 4th inoculation)", "setting": "[1]; biocide 0.01% by wt", "value": "(Growth already after #^st inoculation)"}, {"measurement": "Bacterial growth (7 days + 48 h after 4th inoculation)", "setting": "[1]; biocide 0.015% by wt", "value": "(Growth already after 2nd inoculation)"}, {"measurement": "Bacterial growth (7 days + 48 h after 4th inoculation)", "setting": "[1]; biocide 0.02% by wt", "value": "(Growth already after 2nd inoculation)"}, {"measurement": "Bacterial growth (7 days + 48 h after 4th inoculation)", "setting": "[1]; biocide 0.03% by wt", "value": "(Growth already after 3rd inoculation)"}, {"measurement": "MIC at Total concentration BIT + MIT Qa + Qb", "setting": "Klebsiella pneumoniae; 72 h", "value": 25, "unit": "ppm"}, {"measurement": "Qa/QA", "setting": "Klebsiella pneumoniae; 72 h", "value": 1.00}, {"measurement": "Synergy index Qa/QA + Qb/QB", "setting": "Klebsiella pneumoniae; 72 h", "value": 1.00}, {"measurement": "growth of the microorganism", "setting": "Klebsiella pneumoniae; BIT 1 ppm, 72 h", "value": "+"}, {"measurement": "growth of the microorganism", "setting": "Klebsiella pneumoniae; BIT 2.5 ppm, 72 h", "value": "+"}, {"measurement": "growth of the microorganism", "setting": "Klebsiella pneumoniae; BIT 5 ppm, 72 h", "value": "+"}, {"measurement": "growth of the microorganism", "setting": "Klebsiella pneumoniae; BIT 7.5 ppm, 72 h", "value": "+"}, {"measurement": "growth of the microorganism", "setting": "Klebsiella pneumoniae; BIT 10 ppm, 72 h", "value": "+"}, {"measurement": "growth of the microorganism", "setting": "Klebsiella pneumoniae; BIT 15 ppm, 72 h", "value": "+"}, {"measurement": "growth of the microorganism", "setting": "Klebsiella pneumoniae; BIT 20 ppm, 72 h", "value": "+"}, {"measurement": "growth of the microorganism", "setting": "Klebsiella pneumoniae; BIT 25 ppm, 72 h", "value": "−"}, {"measurement": "growth of the microorganism", "setting": "Klebsiella pneumoniae; BIT 30 ppm, 72 h", "value": "−"}, {"measurement": "growth of the microorganism", "setting": "Klebsiella pneumoniae; BIT 35 ppm, 72 h", "value": "−"}, {"measurement": "MIC at BIT concentration Qa", "setting": "Klebsiella pneumoniae; [3]", "value": 25, "unit": "ppm"}, {"measurement": "MIC value", "setting": "Klebsiella pneumoniae; used alone, 72 h at 25° C.", "value": 25, "unit": "ppm"}, {"measurement": "Bacterial growth (7 days + 48 h after 4th inoculation)", "setting": "[2]; biocide 0.005% by wt", "value": "full bacterial growth was reached already after the first inoculation; also recorded: (Growth already after 1st inoculation)"}, {"measurement": "Bacterial growth (7 days + 48 h after 4th inoculation)", "setting": "[2]; biocide 0.01% by wt", "value": "(Growth already after 1st inoculation)"}, {"measurement": "Bacterial growth (7 days + 48 h after 4th inoculation)", "setting": "[2]; biocide 0.015% by wt", "value": "after the second inoculation; also recorded: (Growth already after 2nd inoculation)"}, {"measurement": "Bacterial growth (7 days + 48 h after 4th inoculation)", "setting": "[2]; biocide 0.02% by wt", "value": "(Growth already after 2nd inoculation)"}, {"measurement": "Bacterial growth (7 days + 48 h after 4th inoculation)", "setting": "[2]; biocide 0.03% by wt", "value": "after the third inoculation; also recorded: (Growth already after 3rd inoculation)"}, {"measurement": "MIC at Total concentration BIT + MIT Qa + Qb", "setting": "Aspergillus niger; 96 h", "value": 750, "unit": "ppm"}, {"measurement": "Qa/QA", "setting": "Aspergillus niger; 96 h", "value": 1.00}, {"measurement": "Synergy index Qa/QA + Qb/QB", "setting": "Aspergillus niger; 96 h", "value": 1.00}, {"measurement": "growth of the microorganism", "setting": "Aspergillus niger; BIT 5 ppm, 96 h", "value": "+"}, {"measurement": "growth of the microorganism", "setting": "Aspergillus niger; BIT 10 ppm, 96 h", "value": "+"}, {"measurement": "growth of the microorganism", "setting": "Aspergillus niger; BIT 25 ppm, 96 h", "value": "+"}, {"measurement": "growth of the microorganism", "setting": "Aspergillus niger; BIT 50 ppm, 96 h", "value": "+"}, {"measurement": "growth of the microorganism", "setting": "Aspergillus niger; BIT 75 ppm, 96 h", "value": "+"}, {"measurement": "growth of the microorganism", "setting": "Aspergillus niger; BIT 100 ppm, 96 h", "value": "−"}, {"measurement": "growth of the microorganism", "setting": "Aspergillus niger; BIT 150 ppm, 96 h", "value": "−"}, {"measurement": "MIC at BIT concentration Qa", "setting": "Aspergillus niger; share of the BIT/MIT mixture at MIC, 96 h", "value": 750, "unit": "ppm"}, {"measurement": "MIC value", "setting": "Aspergillus niger; used alone, 96 h at 25° C.", "value": 100, "unit": "ppm"}]}]}
